In US20220411377A1, “SELECTIVE NEURONAL NITRIC OXIDE SYNTHASE INHIBITORS” (Northwestern University, priority 2019, published 2022):
Where a name gives a salt, the structure may show the parent alone.

Legend:
[1] = target: T1, human eNOS (heNOS) (Homo sapiens, UniProt P29474); experiment: Hemoglobin capture assay, purified human eNOS; format: biochemical
T1 construct: made in house; host or cells: E. coli
Description: (§1) Purified NOS Enzyme Assays. Rat and human nNOS, rat nNOS mutants, murine macrophage iNOS, human iNOS, and human eNOS were recombinant enzymes (expressed in E. coli and purified as reported previously).^21,50-52 To test for NOS inhibition, the hemoglobin capture assay was used to measure nitric oxide production. […] Also included were 100 μM NADPH, 0.83 mM CaCl2), approximately 320 units/mL of calmodulin, 10 μM H4B, and human oxyhemoglobin (3 μM). For iNOS, the CaCl2) and calmodulin were omitted and replaced with HEPES buffer (as neither are required for activation of iNOS). The assay was performed in 96-well plates using a Synergy 4 BioTek hybrid reader. […] Kinetic readouts were performed for 5 min. Each compound was assayed at least in duplicate, and six to nine concentrations (500 μM-50 nM or 100 μM-10 nM for eNOS and iNOS; 50 μM to 5 nM for rat and human nNOS) were used to construct concentration-response curves.

[2] = target: H2 receptor (Homo sapiens, UniProt P25021); experiment: PDSP off-target profiling, H2 receptor; format: binding
Excerpt: (§2) Off-Target Profiling. […] In this assay,^28 compounds were screened against a panel of 45 pharmacologically relevant CNS targets and receptors using a radioligand displacement assay.

[3] = target: human iNOS (hiNOS) (Homo sapiens, UniProt P35228); conditions: read-out: Ki hiNOS; Ki calculated from IC50 (Cheng-Prusoff)
Description: Human iNOS Inhibition Study.
as §1

[4] = target: rat nNOS D597N single mutant (Rattus norvegicus, UniProt P29476, D597N)
Description: as §1

[5] = target: T2, rat nNOS (rnNOS) (Rattus norvegicus, UniProt P29476); experiment: Hemoglobin capture assay, purified rat nNOS; format: biochemical
T2 construct: made in house; host or cells: E. coli
Description: as §1

[6] = target: H3 receptor (Homo sapiens, UniProt Q9Y5N1); experiment: PDSP off-target profiling, H3 receptor
Excerpt: as §2

[7] = system: panel of 45 pharmacologically relevant CNS targets and receptors; conditions: for PDSP binding summary: insignificant: 10 µM
Excerpt: as §2

[8] = target: rat nNOS M336V/D597N double mutant (Rattus norvegicus, UniProt P29476, D597N/M336V); conditions: versus the single mutant
Description: as §1

[9] = PAMPA
Description: In this assay, an artificial membrane containing BBB phospholipids is used to assess permeability.
PAMPA-BBB Assay. The PAMPA-BBB assay was performed following a protocol described previously.^21 Briefly, the assay was performed in 10 mM phosphate-buffered saline (PBS) buffer (pH 7.5), and compounds were tested at a concentration of 200 μM. The donor plate was first coated with 4 μL of porcine brain lipid (20 mg/mL in dodecane), followed by addition of 250 μL of a test compound. The acceptor plate was filled with 250 μL of PBS, and the donor plate was carefully placed on top of the acceptor plate to make a “sandwich”. The plate was incubated at 25° C. for 17 h in a saturated humidity atmosphere with orbital agitation at 100 rpm. […] After incubation, 150 μL of the test solution was taken from each well from both sides (donor and acceptor) and transferred to the UV plate for measurement. The effective permeability (Pe) was calculated using the following equation^57
R is the retention membrane factor and was calculated using the following equation

Sequence of H3 receptor (Q9Y5N1 whole entry): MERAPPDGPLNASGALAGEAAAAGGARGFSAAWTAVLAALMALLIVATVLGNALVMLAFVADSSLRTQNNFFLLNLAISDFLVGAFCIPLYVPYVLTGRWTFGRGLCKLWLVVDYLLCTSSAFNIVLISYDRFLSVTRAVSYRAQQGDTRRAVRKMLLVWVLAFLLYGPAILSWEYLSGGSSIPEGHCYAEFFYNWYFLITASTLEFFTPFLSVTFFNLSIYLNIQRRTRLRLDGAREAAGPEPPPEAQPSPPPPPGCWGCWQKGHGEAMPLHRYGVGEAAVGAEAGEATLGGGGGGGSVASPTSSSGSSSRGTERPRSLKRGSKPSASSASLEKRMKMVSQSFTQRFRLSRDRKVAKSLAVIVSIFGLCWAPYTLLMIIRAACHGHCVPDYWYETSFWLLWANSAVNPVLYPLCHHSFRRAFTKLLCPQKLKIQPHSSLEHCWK
Sequence of H2 receptor (P25021 whole entry): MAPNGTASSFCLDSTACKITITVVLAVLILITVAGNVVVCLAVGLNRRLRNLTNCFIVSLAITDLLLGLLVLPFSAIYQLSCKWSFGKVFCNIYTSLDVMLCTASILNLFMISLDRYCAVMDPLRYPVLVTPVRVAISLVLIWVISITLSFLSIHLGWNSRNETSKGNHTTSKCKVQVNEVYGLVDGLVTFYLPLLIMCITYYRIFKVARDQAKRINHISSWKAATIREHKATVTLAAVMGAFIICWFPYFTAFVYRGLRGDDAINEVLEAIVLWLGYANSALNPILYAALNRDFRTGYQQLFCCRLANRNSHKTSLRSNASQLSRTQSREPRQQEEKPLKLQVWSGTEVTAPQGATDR

Molecule: 7-(3-(2-Aminoethyl)phenyl)-4-methylquinolin-2-amine Dihydrochloride [Compound 12]
- Ki ([1]; Ki calculated from IC50): 52.6 µM
- ΔGbind WT heNOS ([1]; obtained from Ki values): -18.8 kJ/mol
- off-target binding classification, H2 receptor [2]: concerning (concerning (Ki<100 nM, or <˜2× nNOS Ki value))
- Ki [3]: 29.9 µM
- ΔGbind hnNOS D597N mutant ([4]; obtained from Ki values): -30.5 kJ/mol
- decrease in potency, D597N mutant ([4]; versus wild type): 8 fold
- % remaining at 60 min (—NADPH) (HLM without NADPH, 60 min): 87%
- % remaining at 60 min (buffer) (buffer control, 60 min): 67%
- t1/2 (half-life in HLM, Dihydrochloride): >1 h
- CLint (in vitro intrinsic clearance, HLM): 0.48 L/h/kg

Molecule: Cc1cc(N)nc2cc(-c3ccc4c(c3)C(N)CC4)ccc12.Cl.Cl (racemic) [Compound 18, 7-(3-Amino-2,3-dihydro-1H-inden-5-yl)-4-methylquinolin-2-amine Dihydrochloride]
- loss in rnNOS potency relative to comparator ([5]; 6 vs 5, 15 and 18 vs 12, 17 vs 7): approximately 3 fold
- Ki ([5]; wild-type rat nNOS, Ki calculated from IC50): 0.18 µM

Molecule: Cc1cc(N)nc2cc(-c3ccc(CN)cc3)ccc12.Cl.Cl [Compound 7, 7-(4-(Aminomethyl)phenyl)-4-methylquinolin-2-amine Dihydrochloride]
- increase in rnNOS activity ([5]; relative to 5): 2.3 fold

Molecule: Cc1cc(N)nc2cc(-c3ccc(OCC4CC4)c(CN)c3)ccc12.Cl.Cl [Compound 29, 7-(3-(Aminomethyl)-4-(cyclopropylmethoxy)phenyl)-4-methylquinolin-2-amine Dihydrochloride]
- off-target binding classification, H3 receptor [6]: concerning (concerning (Ki<100 nM, or <˜2× nNOS Ki value))

Molecule: Cc1cc(N)nc2cc(-c3ccc(OCc4ccccn4)c(CN)c3)ccc12.Cl.Cl.Cl [Compound 32, 7-(3-(Aminomethyl)-4-(pyridin-2-ylmethoxy)phenyl)-4-methylquinolin-2-amine Trihydrochloride]
- fraction of concerning or moderate hits [7]: 11/45
- PDSP binding summary: insignificant [7]: 12

Molecule: Cc1cc(N)nc2cc(-c3ccc(OCc4cccnc4)c(CN)c3)ccc12.Cl.Cl.Cl [Compound 33, 7-(3-(Aminomethyl)-4-(pyridin-3-ylmethoxy)phenyl)-4-methylquinolin-2-amine Trihydrochloride]
- improvement in binding affinity toward heNOS ([1]; 33 versus 32): 3 fold
- fraction of concerning or moderate hits [7]: 8/45
- PDSP binding summary: insignificant [7]: 20

Molecule: Cc1cc(N)nc2cc(-c3ccc(OCc4cocn4)c(CN)c3)ccc12 [Compound 36, 7-(3-(Aminomethy)-4-(oxazol-4-ylmethoxy)phenyl)-4-methylquinolin-2-amine Trihydrochloride]
- increased potency against the double mutant [8]: 5 fold

Molecule: NCCc1ccc(O)c(O)c1 [dopamine]
- prediction (CNS) [9]: CNS (−)
